System: Mus musculus
Experiment: Toxicity in ip dosed mouse
Assay type: organism-based
Conditions: in vivo

Molecule `C=C1CCCC2=NCC(C)C(C)CC23CCC(C2C=C(C)C(=O)O2)=C(C)C3/C=C(\C)C(O)CC2CCC3(CCC4(OC(CCC4O)C1)O3)O2` (stereo unspecified) has an MLD of 0.03 mg/kg.

— ChEMBL document CHEMBL1142595, “Spirolides isolated from Danish strains of the toxigenic dinoflagellate Alexandrium ostenfeldii” (J Nat Prod, 2006)
